Reference: patent US20110118238A1, “2-ANILINOPURIN-8-ONES AS INHIBITORS OF TTK/MPS1 FOR THE TREATMENT OF PROLIFERATIVE DISORDERS” (ASTRAZENECA AB, priority 2007, published 2011)

Key:
[1] = target: T1, N-terminal GST tagged full length human TTK kinase (Homo sapiens, UniProt P33981); experiment: In Vitro TTK Kinase Assay 2 (Caliper LabChip LC3000); type: biochemical; conditions: recombinant TTK, 12 μM ATP, read-out: EAA2: Enzyme Assay Activity (In Vitro TTK kinase assay 2)
T1 construct: N-terminal GST tagged full length human TTK kinase; GST (N); made in house; host or cells: insect cells
T1 sequence (P33981 1-857): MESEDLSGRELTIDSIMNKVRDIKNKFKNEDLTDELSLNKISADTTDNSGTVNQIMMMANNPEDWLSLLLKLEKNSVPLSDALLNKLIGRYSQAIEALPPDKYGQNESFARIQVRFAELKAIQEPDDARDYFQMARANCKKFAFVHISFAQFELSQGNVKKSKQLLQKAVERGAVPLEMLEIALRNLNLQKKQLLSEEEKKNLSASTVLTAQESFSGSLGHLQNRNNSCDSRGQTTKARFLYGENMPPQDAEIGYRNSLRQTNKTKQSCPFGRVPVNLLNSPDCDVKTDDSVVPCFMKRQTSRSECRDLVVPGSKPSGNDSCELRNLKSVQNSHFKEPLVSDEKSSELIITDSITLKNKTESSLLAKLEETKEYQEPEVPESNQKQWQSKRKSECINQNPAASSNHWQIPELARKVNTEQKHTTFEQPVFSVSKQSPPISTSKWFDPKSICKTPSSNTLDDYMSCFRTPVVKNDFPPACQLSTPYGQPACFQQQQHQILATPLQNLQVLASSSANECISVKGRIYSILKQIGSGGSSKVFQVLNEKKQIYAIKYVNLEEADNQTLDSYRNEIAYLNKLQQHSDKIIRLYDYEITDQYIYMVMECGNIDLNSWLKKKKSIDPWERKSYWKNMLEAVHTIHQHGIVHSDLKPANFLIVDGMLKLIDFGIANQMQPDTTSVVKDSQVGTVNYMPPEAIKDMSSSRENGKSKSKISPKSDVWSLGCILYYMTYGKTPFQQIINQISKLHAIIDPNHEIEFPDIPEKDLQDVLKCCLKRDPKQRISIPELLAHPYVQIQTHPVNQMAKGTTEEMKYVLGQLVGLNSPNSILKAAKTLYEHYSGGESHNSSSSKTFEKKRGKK
Description: Each reaction was stopped by the addition of EDTA to a concentration of 40 mM in a solution which also comprised 0.1% coating reagent (Caliper LS), 100 mM HEPES pH 7.5, 0.015% v/v Brij™-35 and 5% DMSO. The stopped enzyme reactions were sipped through capillaries onto a Caliper chip where the peptide substrate and phosphorylated product were separated and detected via laser-induced fluorescence.

[2] = target: T1, N-terminal GST tagged full length human TTK kinase; experiment: In Vitro TTK Kinase Assay 1 (AlphaScreen); type: biochemical; conditions: recombinant TTK, 10 μM ATP, read-out: EAA: Enzyme Assay Activity (In Vitro TTK kinase assay 1)
Description: Aliquots (2 μL) of each compound dilution were placed into wells of a Greiner 384-well low volume white polystyrene plate (Greiner Bio-one).
The resultant signals arising from laser light excitation at 680 nm were read using a Packard Envision instrument.

Row | SMILES | IC50 [1] [nM] | IC50 [2] [nM]
1 | CCn1c(=O)n(C2CCCC2)c2nc(Nc3ccc(S(C)(=O)=O)cc3OC)ncc21 [Example 32, 9-Cyclopentyl-7-ethyl-2-{[2-methoxy-4-(methylsulfonyl)-phenyl]-amino}-7,9-dihydro-8H-purin-8-one] | 24.5 | 1330
2 | COc1cc(C(=O)NC2CCN(C)CC2)ccc1Nc1ncc2c(n1)n(C1CCCC1)c(=O)n2CC#N [Example 37, 4-{[7-(Cyanomethyl)-9-cyclopentyl-8-oxo-8,9-dihydro-7H-purin-2-yl]amino}-3-methoxy-N-(1-methylpiperidin-4-yl)-benzamide] | 83.4 | 501
3 | CCN1CCC(NC(=O)c2cc(F)c(Nc3ncc4c(n3)n(C3CCCC3)c(=O)n4C)cc2F)CC1 [Example 17, 4-[(9-Cyclopentyl-7-methyl-8-oxo-8,9-dihydro-7H-purin-2-yl)-amino]-N-(1-ethylpiperidin-4-yl)-2,5-difluorobenzamide] | 2010 | 9240
4 | CNC(=O)c1ccc(Nc2ncc3c(n2)n(C2CCCC2)c(=O)n3C)c(OC)c1 [Example 9, 4-[(9-Cyclopentyl-7-methyl-8-oxo-8,9-dihydro-7H-purin-2-yl)amino]-3-methoxy-N-methylbenzamide] | 32.2 | 328
5 | CCn1c(=O)n(C2CCCC2)c2nc(Nc3ccc(OC4CCN(C)CC4)cc3OC)ncc21 [Example 30, 9-Cyclopentyl-7-ethyl-2-({2-methoxy-4-[(1-methylpiperidin-4-yl)-oxy]phenyl}amino)-7,9-dihydro-8H-purin-8-one] | 10.8 | 91.3
6 | Cn1c(=O)n(C2CCCC2)c2nc(Nc3ccc(S(N)(=O)=O)cc3)ncc21 [Example 11, 4-[(9-Cyclopentyl-7-methyl-8-oxo-8,9-dihydro-7H-purin-2-yl)-amino]benzenesulfonamide] | 167 | 9650
7 | COc1cc(C(=O)NC2CC3CCCC(C2)N3C)ccc1Nc1ncc2c(n1)n(C1CCCC1)c(=O)n2C (stereo not shown) [Example 14, 4-[(9-Cyclopentyl-7-methyl-8-oxo-8,9-dihydro-7H-purin-2-yl)-amino]-3-methoxy-N-(9-methyl-9-azabicyclo[3.3.1]non-3-yl)benzamide] | 69.7 | 1560
8 | CCn1c(=O)n(C2CCCC2)c2nc(Nc3ccc(C(=O)NC)cc3OC)ncc21 [Example 31, 4-[(9-Cyclopentyl-7-ethyl-8-oxo-8,9-dihydro-7H-purin-2-yl)-amino]-3-methoxy-N-methylbenzamide] | 16.4 | 371
9 | CN1C2CCCC1CC(NC(=O)c1ccc(Nc3ncc4c(n3)n(C3CCCC3)c(=O)n4C)c(F)c1)C2 (stereo not shown) [Example 16, 4-[(9-Cyclopentyl-7-methyl-8-oxo-8,9-dihydro-7H-purin-2-yl)-amino]-3-fluoro-N-(9-methyl-9-azabicyclo[3.3.1]non-3-yl)-benzamide] | 313 | 1680
10 | Cn1c(=O)n(C2CCCC2)c2nc(Nc3ccc(N4CCS(=O)(=O)CC4)cc3)ncc21 [Example 12, 9-Cyclopentyl-2-{[4-(1,1-dioxidothiomorpholin-4-yl)-phenyl]-amino}-7-methyl-7,9-dihydro-8H-purin-8-one] | 15.2 | 1170
11 | CN1CCC(NC(=O)c2ccc(Nc3ncc4c(n3)n(C3CCCC3)c(=O)n4C)cc2F)CC1 [Example 8, 4-[(9-Cyclopentyl-7-methyl-8-oxo-8,9-dihydro-7H-purin-2-yl)-amino]-2-fluoro-N-(1-methylpiperidin-4-yl)benzamide] | 633 | 3910
12 | CCOc1cc(N2CCC(N(C)C)CC2)ccc1Nc1ncc2c(n1)n(C1CCCC1)c(=O)n2C [Example 23, 9-Cyclopentyl-2-({4-[4-(dimethylamino)piperidin-1-yl]-2-ethoxyphenyl}amino)-7-methyl-7,9-dihydro-8H-purin-8-one] | 75.6 | 703
13 | Cc1cc(S(N)(=O)=O)ccc1Nc1ncc2c(n1)n(C1CCCC1)c(=O)n2C [Example 2, 4-[(9-Cyclopentyl-7-methyl-8-oxo-8,9-dihydro-7H-purin-2-yl)-amino]-3-methylbenzenesulfonamide] | 16.6 | 1280

More lines, now with the values ahead:

Row | IC50 [1] [nM] | IC50 [2] [nM] | SMILES
14 | 53.8 | 220 | CCn1c(=O)n(C2CCCC2)c2nc(Nc3ccc(N4CCN(C)CC4)cc3OC)ncc21 [Example 29, 9-Cyclopentyl-7-ethyl-2-{[2-methoxy-4-(4-methylpiperazin-1-yl)-phenyl]amino}-7,9-dihydro-8H-purin-8-one]
15 | 24.1 | 288 | COc1cc(CCN2CCN(C)CC2)ccc1Nc1ncc2c(n1)n(C1CCCC1)c(=O)n2C [Example 27, 9-Cyclopentyl-2-({2-methoxy-4-[2-(4-methylpiperazin-1-yl)-ethyl]phenyl}amino)-7-methyl-7,9-dihydro-8H-purin-8-one]
16 | 26 | 50.9 | CCOc1cc(OC2CCN(C)CC2)ccc1Nc1ncc2c(n1)n(C1CCCC1)c(=O)n2C [Example 26, 9-Cyclopentyl-2-({2-ethoxy-4-[(1-methylpiperidin-4-yl)-oxy]-phenyl}amino)-7-methyl-7,9-dihydro-8H-purin-8-one]
17 | 19.4 | 1050 | COc1cc(C(=O)N2CCCC2)ccc1Nc1ncc2c(n1)n(C1CCCC1)c(=O)n2C [Example 10, 9-Cyclopentyl-2-{[2-methoxy-4-(pyrrolidin-1-ylcarbonyl)-phenyl]amino}-7-methyl-7,9-dihydro-8H-purin-8-one]
18 | 47.3 | 384 | CCOc1cc(N2CCCN(C)CC2)ccc1Nc1ncc2c(n1)n(C1CCCC1)c(=O)n2C [Example 21, 9-Cyclopentyl-2-{[2-ethoxy-4-(4-methyl-1,4-diazepan-1-yl)-phenyl]amino}-7-methyl-7,9-dihydro-8H-purin-8-one]
19 | 22.9 | 213 | COc1cc(N2CCN(C)CC2)ccc1Nc1ncc2c(n1)n(C1CCCC1)c(=O)n2C [Example 4, 9-Cyclopentyl-2-{[2-methoxy-4-(4-methylpiperazin-1-yl)-phenyl]amino}-7-methyl-7,9-dihydro-8H-purin-8-one]
20 | 17.3 | 151 | COc1cc(OC2CCN(C)C2)ccc1Nc1ncc2c(n1)n(C1CCCC1)c(=O)n2C (stereo not shown) [Example 24, 9-Cyclopentyl-2-({2-methoxy-4-[(1-methylpyrrolidin-3-yl)-oxy]-phenyl}amino)-7-methyl-7,9-dihydro-8H-purin-8-one]
